For one assay, the target named is ALK5 (Homo sapiens (Human), UniProt P36897). Briefly: Cell-free assay for inhibition of ALK5 kinase phosphorylation. The assay is classed as biochemical.
ALK5, sequence (P36897 34-503): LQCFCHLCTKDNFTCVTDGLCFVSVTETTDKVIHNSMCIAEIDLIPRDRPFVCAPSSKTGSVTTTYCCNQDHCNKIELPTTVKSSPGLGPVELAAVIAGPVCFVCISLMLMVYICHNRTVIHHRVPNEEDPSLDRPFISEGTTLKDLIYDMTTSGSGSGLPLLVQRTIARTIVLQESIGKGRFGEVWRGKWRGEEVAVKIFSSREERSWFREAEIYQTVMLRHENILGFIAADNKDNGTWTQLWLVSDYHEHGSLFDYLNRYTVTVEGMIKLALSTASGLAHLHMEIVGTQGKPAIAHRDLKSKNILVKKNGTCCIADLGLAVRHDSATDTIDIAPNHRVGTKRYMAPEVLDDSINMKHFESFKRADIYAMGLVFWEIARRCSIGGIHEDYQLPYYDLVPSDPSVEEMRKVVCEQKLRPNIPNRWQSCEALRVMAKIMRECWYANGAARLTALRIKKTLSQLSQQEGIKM
Conditions: not given
For the compound `Cc1cccc(-c2[nH]c(CNc3ccccc3C#N)nc2-c2ccc3ncnn3c2)n1` [Example 59, 2-((4-([1,2,4]triazolo[1,5-a]pyridin-6-yl)-5-(6-methylpyridin-2-yl)-1H-imidazol-2-yl)methylamino)benzonitrile], the midpoint of inhibition, the IC50, lay at 19.5 nM.

Still in this assay, the particulars now being: read-out: IC50 on ALK5 kinase phosphorylation.
As to `COc1ccc(NCc2nc(-c3ccc4ncnn4c3)c(-c3cccc(C)n3)[nH]2)cc1OC` [Example 46, N-((4-([1,2,4]triazolo[1,5-a]pyridin-6-yl)-5-(6-methylpyridin-2-yl)-1H-imidazol-2-yl)methyl)-3,4-dimethoxyaniline], the IC50 was 44.2 nM.
For `COc1cc(NCc2nc(-c3ccc4ncnn4c3)c(-c3cccc(C)n3)[nH]2)cc(OC)c1` [Example 47, N-((4-([1,2,4]triazolo[1,5-a]pyridin-6-yl)-5-(6-methylpyridin-2-yl)-1H-imidazol-2-yl)methyl)-3,5-dimethoxyaniline], the IC50 turned out to be 14.4 nM.
The same measure, in the same setting: the same measure for `COCc1ccccc1NCc1nc(-c2ccc3ncnn3c2)c(-c2cccc(C)n2)[nH]1` [Example 48, N-((4-([1,2,4]triazolo[1,5-a]pyridin-6-yl)-5-(6-methylpyridin-2-yl)-1H-imidazol-2-yl)methyl)-2-(methoxymethyl)aniline]: 24.1 nM; for `COCc1cccc(NCc2nc(-c3ccc4ncnn4c3)c(-c3cccc(C)n3)[nH]2)c1` [Example 49, N-((4-([1,2,4]triazolo[1,5-a]pyridin-6-yl)-5-(6-methylpyridin-2-yl)-1H-imidazol-2-yl)methyl)-3-(methoxymethyl)aniline]: 15.3 nM; for `COCc1ccc(NCc2nc(-c3ccc4ncnn4c3)c(-c3cccc(C)n3)[nH]2)cc1` [Example 50, N-((4-([1,2,4]triazolo[1,5-a]pyridin-6-yl)-5-(6-methylpyridin-2-yl)-1H-imidazol-2-yl)methyl)-4-(methoxymethyl)aniline]: 50.7 nM.
For `Cc1cccc(-c2[nH]c(CNc3ccccc3OC(F)(F)F)nc2-c2ccc3ncnn3c2)n1` [Example 51, N-((4-([1,2,4]triazolo[1,5-a]pyridin-6-yl)-5-(6-methylpyridin-2-yl)-1H-imidazol-2-yl)methyl)-2-(trifluoromethoxy)aniline], the IC50 was 12.3 nM.
Same read-out and setting: the same measure for `Cc1cccc(-c2[nH]c(CNc3cccc(OC(F)(F)F)c3)nc2-c2ccc3ncnn3c2)n1` [Example 52, N-((4-([1,2,4]triazolo[1,5-a]pyridin-6-yl)-5-(6-methylpyridin-2-yl)-1H-imidazol-2-yl)methyl)-3-(trifluoromethoxy)aniline]: 23.4 nM; for `Cc1cccc(-c2[nH]c(CNc3ccc(OC(F)(F)F)cc3)nc2-c2ccc3ncnn3c2)n1` [Example 53, N-((4-([1,2,4]triazolo[1,5-a]pyridin-6-yl)-5-(6-methylpyridin-2-yl)-1H-imidazol-2-yl)methyl)-4-(trifluoromethoxy)aniline]: 60.1 nM; for `CSc1ccccc1NCc1nc(-c2ccc3ncnn3c2)c(-c2cccc(C)n2)[nH]1` [Example 54, N-((4-([1,2,4]triazolo[1,5-a]pyridin-6-yl)-5-(6-methylpyridin-2-yl)-1H-imidazol-2-yl)methyl)-2-(methylthio)aniline]: 9.93 nM.
Still for that read-out and setting: the same measure for `CSc1cccc(NCc2nc(-c3ccc4ncnn4c3)c(-c3cccc(C)n3)[nH]2)c1` [Example 55, N-((4-([1,2,4]triazolo[1,5-a]pyridin-6-yl)-5-(6-methylpyridin-2-yl)-1H-imidazol-2-yl)methyl)-3-(methylthio)aniline]: 6.7 nM; for `CSc1ccc(NCc2nc(-c3ccc4ncnn4c3)c(-c3cccc(C)n3)[nH]2)cc1` [Example 58, N-((4-([1,2,4]triazolo[1,5-a]pyridin-6-yl)-5-(6-methylpyridin-2-yl)-1H-imidazol-2-yl)methyl)-4-(methylthio)aniline]: 39.6 nM.
Still for that read-out and setting: the same measure for `Cc1cccc(-c2[nH]c(CNc3cccc(C#N)c3)nc2-c2ccc3ncnn3c2)n1` [Example 60, 3-((4-([1,2,4]triazolo[1,5-a]pyridin-6-yl)-5-(6-methylpyridin-2-yl)-1H-imidazol-2-yl)methylamino)benzonitrile]: 4.83 nM; for `Cc1cccc(-c2[nH]c(CNc3ccc(C#N)cc3)nc2-c2ccc3ncnn3c2)n1` [Example 63, 4-((4-([1,2,4]triazolo[1,5-a]pyridin-6-yl)-5-(6-methylpyridin-2-yl)-1H-imidazol-2-yl)methylamino)benzonitrile]: 32.1 nM; for `Cc1cccc(-c2[nH]c(CNc3cccc(C#N)c3C#N)nc2-c2ccc3ncnn3c2)n1` [Example 64, 3-((4-([1,2,4]triazolo[1,5-a]pyridin-6-yl)-5-(6-methylpyridin-2-yl)-1H-imidazol-2-yl)methylamino)phthalonitrile]: 20.6 nM.
As to `Cc1cccc(-c2[nH]c(CNc3ccccc3C(N)=O)nc2-c2ccc3ncnn3c2)n1` [Example 65, 2-((4-([1,2,4]triazolo[1,5-a]pyridin-6-yl)-5-(6-methylpyridin-2-yl)-1H-imidazol-2-yl)methylamino)benzamide], the half-inhibitory concentration (IC50) was determined as 29.7 nM.
The same measure, in the same setting: the same measure for `Cc1cccc(-c2[nH]c(CNc3cccc(C(N)=O)c3)nc2-c2ccc3ncnn3c2)n1` [Example 66, 3-((4-([1,2,4]triazolo[1,5-a]pyridin-6-yl)-5-(6-methylpyridin-2-yl)-1H-imidazol-2-yl)methylamino)benzamide]: 9.14 nM; for `Cc1cccc(-c2[nH]c(CNc3ccc(C(N)=O)cc3)nc2-c2ccc3ncnn3c2)n1` [Example 67, 4-((4-([1,2,4]triazolo[1,5-a]pyridin-6-yl)-5-(6-methylpyridin-2-yl)-1H-imidazol-2-yl)methylamino)benzamide]: 54.6 nM; for `Cc1cccc(-c2[nH]c(CNc3cccc(CC#N)c3)nc2-c2ccc3ncnn3c2)n1` [Example 68, 2-(3-((4-([1,2,4]triazolo[1,5-a]pyridin-6-yl)-5-(6-methylpyridin-2-yl)-1H-imidazol-2-yl)methylamino)phenyl)acetonitrile]: 11 nM.
Still for that read-out and setting: the same measure for `Cc1cccc(-c2[nH]c(CNc3ccc(CC#N)cc3)nc2-c2ccc3ncnn3c2)n1` [Example 69, 2-(4-((4-([1,2,4]triazolo[1,5-a]pyridin-6-yl)-5-(6-methylpyridin-2-yl)-1H-imidazol-2-yl)methylamino)phenyl)acetonitrile]: 24.5 nM.
Still for that read-out and setting: the same measure for `CC(=O)c1cccc(NCc2nc(-c3ccc4ncnn4c3)c(-c3cccc(C)n3)[nH]2)c1` [Example 70, 1-(3-((4-([1,2,4]triazolo[1,5-a]pyridin-6-yl)-5-(6-methylpyridin-2-yl)-1H-imidazol-2-yl)methylamino)phenyl)ethanone]: 12.8 nM; for `CC(=O)c1ccc(NCc2nc(-c3ccc4ncnn4c3)c(-c3cccc(C)n3)[nH]2)cc1` [Example 71, 1-(4-((4-([1,2,4]triazolo[1,5-a]pyridin-6-yl)-5-(6-methylpyridin-2-yl)-1H-imidazol-2-yl)methylamino)phenyl)ethanone]: 59.1 nM; for `COC(=O)c1cccc(NCc2nc(-c3ccc4ncnn4c3)c(-c3cccc(C)n3)[nH]2)c1` [Example 72, Methyl 3-((4-([1,2,4]triazolo[1,5-a]pyridin-6-yl)-5-(6-methylpyridin-2-yl)-1H-imidazol-2-yl)methylamino)benzoate]: 16.6 nM.
With `COC(=O)c1ccc(NCc2nc(-c3ccc4ncnn4c3)c(-c3cccc(C)n3)[nH]2)cc1` [Example 73, Methyl 4-((4-([1,2,4]triazolo[1,5-a]pyridin-6-yl)-5-(6-methylpyridin-2-yl)-1H-imidazol-2-yl)methylamino)benzoate], the IC50 is 78 nM.
Regarding `CC(=O)Nc1ccccc1NCc1nc(-c2ccc3ncnn3c2)c(-c2cccc(C)n2)[nH]1` [Example 74, N-(2-((4-([1,2,4]triazolo[1,5-a]pyridin-6-yl)-5-(6-methylpyridin-2-yl)-1H-imidazol-2-yl)methylamino)phenyl)acetamide], the IC50 was 39.5 nM.
Still for that read-out and setting: the same measure for `CC(=O)Nc1cccc(NCc2nc(-c3ccc4ncnn4c3)c(-c3cccc(C)n3)[nH]2)c1` [Example 75, N-(3-((4-([1,2,4]triazolo[1,5-a]pyridin-6-yl)-5-(6-methylpyridin-2-yl)-1H-imidazol-2-yl)methylamino)phenyl)acetamide]: 15.4 nM; for `CC(=O)Nc1ccc(NCc2nc(-c3ccc4ncnn4c3)c(-c3cccc(C)n3)[nH]2)cc1` [Example 76, N-(4-((4-([1,2,4]triazolo[1,5-a]pyridin-6-yl)-5-(6-methylpyridin-2-yl)-1H-imidazol-2-yl)methylamino)phenyl)acetamide]: 39 nM.
On the same count and under the same terms, the same measure for `Cc1cccc(-c2[nH]c(CNc3ccccc3NS(C)(=O)=O)nc2-c2ccc3ncnn3c2)n1` [Example 77, N-(2-((4-([1,2,4]triazolo[1,5-a]pyridin-6-yl)-5-(6-methylpyridin-2-yl)-1H-imidazol-2-yl)methylamino)phenyl)methanesulfonamide]: 15.3 nM; for `Cc1cccc(-c2[nH]c(CNc3cccc(NS(C)(=O)=O)c3)nc2-c2ccc3ncnn3c2)n1` [Example 78, N-(3-((4-([1,2,4]triazolo[1,5-a]pyridin-6-yl)-5-(6-methylpyridin-2-yl)-1H-imidazol-2-yl)methylamino)phenyl)methanesulfonamide]: 15.1 nM; for `Cc1cccc(-c2[nH]c(CNc3ccc(NS(C)(=O)=O)cc3)nc2-c2ccc3ncnn3c2)n1` [Example 79, N-(4-((4-([1,2,4]triazolo[1,5-c]pyridin-6-yl)-5-(6-methylpyridin-2-yl)-1H-imidazol-2-yl)methylamino)phenyl)methanesulfonamide]: 46.6 nM.
Same read-out and setting: the same measure for `CCc1cccc(-c2[nH]c(CNc3cccc(C#N)c3)nc2-c2ccc3ncnn3c2)n1` [Example 138, 3-((4-([1,2,4]triazolo[1,5-a]pyridin-6-yl)-5-(6-ethylpyridin-2-yl)-1H-imidazol-2-yl)methylamino)benzonitrile]: 9.4 nM; for `CCc1cccc(-c2[nH]c(CNc3ccccc3F)nc2-c2ccc3ncnn3c2)n1` [Example 139, N-((4-([1,2,4]triazolo[1,5-a]pyridin-6-yl)-5-(6-ethylpyridin-2-yl)-1H-imidazol-2-yl)methyl)-2-fluoroaniline]: 23.2 nM.

Values taken from USRE47141E1, “Methods of treating fibrosis, cancer and vascular injuries” (EWHA University—Industry Collaboration Foundation, priority 2010, dated 2018).
